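Results reflect a 48-hour exposure of cells in 96-well plates to compound at five concentrations. GI50 marks 50% less growth.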 The source made the active and inactive calls. No stated cut-off is given here; in the data, active = GI50 up to about 1.1 µM and inactive = higher.
Experiments:
Assay in all cases: NCI-60 cell line screen, 48 h
ACHN = test system: ACHN
DLD-1 = test system: DLD-1
HCT-116 = test system: HCT-116
HCT-15 = test system: HCT-15
HT-29 = test system: HT-29
KM12 = test system: KM12
MOLT-4 = test system: MOLT-4
NCI-H226 = test system: NCI-H226
NCI-H522 = test system: NCI-H522
OVCAR-8 = test system: OVCAR-8
RPMI-8226 = test system: RPMI-8226
RXF 393 = test system: RXF 393
SF-539 = test system: SF-539
SK-OV-3 = test system: SK-OV-3
SR = test system: SR
TK-10 = test system: TK-10
U-251 = test system: U-251
UACC-257 = test system: UACC-257
DU-145 = test system: DU-145
MCF7 = test system: MCF7

Structure (SMILES)	GI50 (ACHN)	GI50 (DLD-1)	GI50 (HCT-116)	GI50 (HCT-15) [µM]	GI50 (HT-29)	GI50 (KM12)	GI50 (MOLT-4)	GI50 (NCI-H226)	GI50 (NCI-H522)	GI50 (OVCAR-8)	GI50 (RPMI-8226)	GI50 (RXF 393)	GI50 (SF-539)	GI50 (SK-OV-3)	GI50 (SR)	GI50 (TK-10)	GI50 (U-251)	GI50 (UACC-257)	GI50 (DU-145)	GI50 (MCF7)
CCCCCCCCC(=O)NCCCNCCCNC(=O)CCCCCCCC	5.75 µM (inactive)	2.93 µM (inactive)	5.04 µM (inactive)	14.7	2.92 µM (inactive)	2.01 µM (inactive)	3.4 µM (inactive)	17.9 µM (inactive)	5.05 µM (inactive)	14.9 µM (inactive)	3.23 µM (inactive)	8.89 µM (inactive)	15.7 µM (inactive)	14.3 µM (inactive)	2.62 µM (inactive)	15.1 µM (inactive)	3.25 µM (inactive)	7.1 µM (inactive)		
Cn1cnc([N+](=O)[O-])c1Sc1n[nH]c(-c2ccc(Cl)cc2)n1	18.7 µM (inactive)	18.4 µM (inactive)	19.6 µM (inactive)		19.1 µM (inactive)	18.5 µM (inactive)	12.2 µM (inactive)	14 µM (inactive)	11.7 µM (inactive)	16.3 µM (inactive)	22.1 µM (inactive)	13.3 µM (inactive)	15.3 µM (inactive)	30.9 µM (inactive)	13.1 µM (inactive)	17.7 µM (inactive)	19.5 µM (inactive)	17.1 µM (inactive)		
COc1ccc(C(Cl)=C(c2ccc(OCCN(C)C)cc2)c2ccc(OCCN(C)C)cc2)cc1	1.82 µM (inactive)	2.51 µM (inactive)	1.13 µM (inactive)	1.59	1.49 µM (inactive)	1.37 µM (inactive)	1.22 µM (inactive)	1.61 µM (inactive)	1.57 µM (inactive)	1.87 µM (inactive)	1.62 µM (inactive)	1.13 µM (inactive)	1.57 µM (inactive)	2.53 µM (inactive)	1.36 µM (inactive)	17.1 µM (inactive)	1.58 µM (inactive)			
Cc1nc2nnnn2c2c1C(=O)Nc1ccccc1N2	73.3 µM (inactive)	> 100 µM (inactive)	> 100 µM (inactive)		> 100 µM (inactive)	> 100 µM (inactive)	43.2 µM (inactive)	> 100 µM (inactive)	> 100 µM (inactive)	> 100 µM (inactive)	> 100 µM (inactive)	> 100 µM (inactive)	> 100 µM (inactive)	> 100 µM (inactive)	18.7 µM (inactive)	> 100 µM (inactive)	> 100 µM (inactive)	> 100 µM (inactive)		
Cc1ccc(C)c(NC(=O)CC/C(=N\NC(=O)c2c(O)ccc3ccccc23)C(C)C(=O)c2ccc(O)cc2)c1 (stereo unspecified)	25.2 µM (inactive)	52.5 µM (inactive)	57.4 µM (inactive)	26.5	46.9 µM (inactive)	51.2 µM (inactive)	27.2 µM (inactive)	37.1 µM (inactive)	19.9 µM (inactive)	26.1 µM (inactive)	94.4 µM (inactive)	51.9 µM (inactive)	30.7 µM (inactive)		27.8 µM (inactive)	> 100 µM (inactive)	31.8 µM (inactive)	31.9 µM (inactive)		
COc1cc(C[P+](c2ccccc2)(c2ccccc2)c2ccccc2)cc(OC)c1OC	> 100 µM (inactive)	> 100 µM (inactive)	> 100 µM (inactive)	> 100	> 100 µM (inactive)	> 100 µM (inactive)		> 100 µM (inactive)	> 100 µM (inactive)	> 100 µM (inactive)	> 100 µM (inactive)	> 100 µM (inactive)	> 100 µM (inactive)	> 100 µM (inactive)	> 100 µM (inactive)	> 100 µM (inactive)	> 100 µM (inactive)	> 100 µM (inactive)		
C/C1=C/C2OC(=O)C3(C)C2C(CC2(C)OC1=CC2=O)OC3(O)C(C)C (stereo unspecified)	33.9 µM (inactive)	32.7 µM (inactive)	> 61.1 µM (inactive)	20.3	28.3 µM (inactive)	27 µM (inactive)	29.4 µM (inactive)	33.5 µM (inactive)	14.8 µM (inactive)	29 µM (inactive)	21.8 µM (inactive)	> 37.4 µM (inactive)	41.4 µM (inactive)	46 µM (inactive)	22.6 µM (inactive)	41.5 µM (inactive)	23.9 µM (inactive)	26.9 µM (inactive)	59.8 µM (inactive)	43.7 µM (inactive)
CC(N)Cc1ccc(Cl)cc1 (stereo unspecified)	> 100 µM (inactive)	> 100 µM (inactive)	41 µM (inactive)	51.6	50.8 µM (inactive)	> 100 µM (inactive)	68.9 µM (inactive)	> 100 µM (inactive)	> 100 µM (inactive)	> 100 µM (inactive)	> 100 µM (inactive)	> 100 µM (inactive)	> 100 µM (inactive)	> 100 µM (inactive)	> 100 µM (inactive)	> 100 µM (inactive)	> 100 µM (inactive)	> 100 µM (inactive)		

— ChEMBL document CHEMBL1201862, “PubChem BioAssay data set” (2004)
